# Test results: ChEMBL document CHEMBL5226326, “Discovery of 1-Benzoyl 4-Phenoxypiperidines as Small-Molecule Inhibitors of the β-Catenin/B-Cell Lymphoma 9 Protein-Protein Interaction” (J Med Chem, 2021)
# Experiments:
# [1] = tested on: SW480; test: Antiproliferative activity against beta-catenin signalling overexpressing human SW480 cells assessed as reduction in cell growth incubated for 72 hrs by MTS assay; format: functional, cell-based; conditions: SW480, 72 h
# [2] = target: T1, Catenin beta-1/Cadherin-1 (Homo sapiens, UniProt P35222); test: Inhibition of full length beta-catenin (1 to 686 residues) (unknown origin) expressed in Escherichia coli BL21 (DE3)/N-terminal biotinylated human E-cadherin (824 to 877 residues) protein-protein interaction incubated for 2 hr by fluorescence anisotropy binding assay
# T1 sequence (P35222 whole entry): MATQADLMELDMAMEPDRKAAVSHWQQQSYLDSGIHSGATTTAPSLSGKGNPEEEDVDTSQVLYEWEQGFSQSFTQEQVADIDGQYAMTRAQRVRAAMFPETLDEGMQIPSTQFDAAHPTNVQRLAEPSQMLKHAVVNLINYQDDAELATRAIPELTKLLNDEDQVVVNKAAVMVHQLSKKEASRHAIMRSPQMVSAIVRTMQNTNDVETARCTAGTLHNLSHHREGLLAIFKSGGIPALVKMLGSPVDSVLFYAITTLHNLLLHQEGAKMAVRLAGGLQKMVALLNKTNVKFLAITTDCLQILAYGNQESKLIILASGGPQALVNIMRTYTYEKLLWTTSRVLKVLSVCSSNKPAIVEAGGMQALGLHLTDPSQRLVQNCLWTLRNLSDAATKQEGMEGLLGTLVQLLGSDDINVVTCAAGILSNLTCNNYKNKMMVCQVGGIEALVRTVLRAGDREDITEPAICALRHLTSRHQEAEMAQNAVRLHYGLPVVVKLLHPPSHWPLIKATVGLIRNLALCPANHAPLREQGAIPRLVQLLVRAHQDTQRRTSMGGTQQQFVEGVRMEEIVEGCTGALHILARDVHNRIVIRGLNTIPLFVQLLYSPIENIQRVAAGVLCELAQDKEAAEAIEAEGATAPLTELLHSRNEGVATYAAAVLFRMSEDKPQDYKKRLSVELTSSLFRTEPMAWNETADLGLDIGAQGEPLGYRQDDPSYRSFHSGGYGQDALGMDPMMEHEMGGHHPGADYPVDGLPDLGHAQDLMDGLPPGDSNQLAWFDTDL
# T1 sequence (P12830 whole entry): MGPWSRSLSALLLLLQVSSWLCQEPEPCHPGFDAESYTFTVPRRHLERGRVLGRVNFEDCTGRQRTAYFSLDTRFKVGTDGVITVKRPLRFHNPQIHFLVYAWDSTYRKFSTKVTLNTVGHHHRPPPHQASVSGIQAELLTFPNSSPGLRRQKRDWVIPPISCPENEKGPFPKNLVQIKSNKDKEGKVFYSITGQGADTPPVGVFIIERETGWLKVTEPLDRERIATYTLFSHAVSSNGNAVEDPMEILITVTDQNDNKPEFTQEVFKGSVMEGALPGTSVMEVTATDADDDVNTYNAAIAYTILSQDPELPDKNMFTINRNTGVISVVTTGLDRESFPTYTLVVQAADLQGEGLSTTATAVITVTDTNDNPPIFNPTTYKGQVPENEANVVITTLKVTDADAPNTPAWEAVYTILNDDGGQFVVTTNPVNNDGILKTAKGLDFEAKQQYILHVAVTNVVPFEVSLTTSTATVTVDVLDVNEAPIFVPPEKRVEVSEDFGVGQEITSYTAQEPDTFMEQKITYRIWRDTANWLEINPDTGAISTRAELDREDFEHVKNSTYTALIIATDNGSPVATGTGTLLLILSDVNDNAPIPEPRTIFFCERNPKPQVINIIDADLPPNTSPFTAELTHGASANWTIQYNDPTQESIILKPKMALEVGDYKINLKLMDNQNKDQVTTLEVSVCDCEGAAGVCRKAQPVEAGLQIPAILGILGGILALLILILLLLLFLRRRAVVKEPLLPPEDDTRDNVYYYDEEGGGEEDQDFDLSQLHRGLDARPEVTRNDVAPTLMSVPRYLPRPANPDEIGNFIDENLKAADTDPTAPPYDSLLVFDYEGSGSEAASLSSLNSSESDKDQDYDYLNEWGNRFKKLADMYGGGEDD
# [3] = Cytotoxicity against human MCF-10A cells assessed as reduction in cell growth incubated for 72 hrs by MTS assay; format: toxicity, cell-based
# [4] = tested on: HCT-116; test: Antiproliferative activity against beta-catenin signalling overexpressing human HCT-116 cells assessed as reduction in cell growth incubated for 72 hrs by MTS assay; format: functional, cell-based; conditions: HCT-116, 72 h
# [5] = Inhibition of Wnt/beta-catenin D145A/E155A mutant transactivation signalling in human HEK293 cells transfected with TOPFlash reporter gene incubated for 24 hrs by TOPFlash luciferase assay; format: cell-based; conditions: HEK293, 24 h
compound,measurement,setting,value
CC(C)(C)C1CCC(c2cc(C(=O)N3CCC(Oc4cc(N5CCNCC5)ccc4C#N)CC3)ccc2O[C@H]2CCNC2)CC1.Cl.Cl (mixture of isomers; cis),IC50,[1],6.2 µM
same,Kd,[2],67 µM
same,IC50 at 72 h,[3],18 µM
same,IC50,[4],9.7 µM
same,IC50,[5],24 µM
